Test results published in US12226418B2, “Dosing regimen for the treatment of PI3K related disorders” (Incyte Corporation, priority 2018, dated 2025).

Tests used:
[1] = Clinical pharmacokinetics and food effect, Compound 1C monotherapy; type: in vivo
Protocol: Patients were assessed on Days 1, 8, and 15 of Cycle 1 and Day 1 (±3) of each subsequent treatment cycle.

[2] = tested on: relapsed or refractory B-cell malignancies; assay: Efficacy, Compound 1C monotherapy; type: in vivo, human; conditions: for durable response: included QW dosing
Protocol: The secondary endpoints were efficacy and PK. Efficacy was measured by best overall response rate (ORR), defined as the proportion of patients achieving a partial response (PR) or complete response (CR). Response was evaluated (per investigator's assessment) every 9 weeks based on the Lugano classification of lymphoma response criteria for HL and NHL (Cheson B. D. et al, Journal of Clinical Oncology, 2014; 32(27):3059-3067), the International Working Group on Chronic Lymphocytic Leukemia criteria for chronic lymphocytic leukemia (CLL) (Hallek M. et al, Blood, 2008; 111(12):5446-5456; Cheson B. D. et al, J Clin Oncol, 2012; 30(23):2820-2822)), and the VIth International Workshop on Waldenström Macroglobulinemia response assessment for Waldenström Macroglobulinemia (WM) (Owen R. G. et al, Br J Haematol, 2013; 160(2):171-176). If the patient's response to treatment was assessed by PET and CTI/MRI, then the PET result was used for response endpoints; CT/MRI result was used for an assessment if PET result was not available for the assessment; CT/MRI was used for response endpoints if it was the only form of assessment available for the patient.
(§1) Exploratory endpoints included: duration of response (DOR, duration of time from first response to death or disease progression, whichever occurred first); progression free survival (PFS, duration of time from first study dose to death or disease progression, whichever occurred first); population PK; pharmacodynamic (PD) relationship between PI3Kδ inhibition (as determined by an ex vivo phosphorylated AKT [pAKT] assay).

[3] = tested on: phosphorylated AKT (pAKT; Ser473) in SU-DHL cells; assay: Ex vivo phosphorylated AKT (pAKT) pharmacodynamic assay in patient whole blood; type: cell-based, human; conditions: all Compound 1C doses, up to 6 hours post-dose
Protocol: Compound 1C was dosed once daily and levels of phosphorylated AKT (pAKT; Ser473) were measured by flow cytometry in SU-DHL cells added to patient whole blood after Compound 1C treatment on day 15 of cycle 1.
as §1

CCOc1c([C@H](C)n2nc(C)c3c(N)ncnc32)cc(Cl)c(F)c1[C@@H]1CNC(=O)C1.Cl [Compound 1C, (R)-4-(3-((S)-1-(4-amino-3-methyl-1H-pyrazolo[3,4-d]pyrimidin-1-yl)ethyl)-5-chloro-2-ethoxy-6-fluorophenyl)pyrrolidin-2-one hydrochloric acid salt]
Cmax above the IC90 for pAKT inhibition ([1]; 20 mg QD): 16 fold
Ctrough above the IC90 for pAKT inhibition ([1]; 20 mg QD): 2 fold
decrease in AUC with high fat meal ([1]; food effect, 12 patients): 10%
decrease in Cmax with high fat meal compared with fasted state ([1]; food effect, 12 patients): 42%
fed versus fasted geometric mean ratio for AUC ([1]; food effect, 12 patients): 0.90
food effect analysis, timing of meals ([1]; human, in vivo): may be dosed without regard to timing of meals
CR/CMR ([2]; CLL, N 6): 0 (0) n (%)
Not evaluable/ not assessed ([2]; CLL, N 6): 1 (17) n (%)
ORR ([2]; CLL, N 6): 2 (33 [4-78]) n (% [95% CI])
PD/PMD ([2]; CLL, N 6): 1 (17) n (%)
PR/PMR ([2]; CLL, N 6): 2 (33) n (%)
ORR ([2]; DLBCL): 30%
median duration of response ([2]; DLBCL): 13.5 months
CR/CMR ([2]; DLBCL ABC, N 2): 0 (0) n (%)
Not evaluable/ not assessed ([2]; DLBCL ABC, N 2): 0 n (%)
ORR ([2]; DLBCL ABC, N 2): 1 (50 [1-99]) n (% [95% CI])
PD/PMD ([2]; DLBCL ABC, N 2): 1 (50) n (%)
PR/PMR ([2]; DLBCL ABC, N 2): 1 (50) n (%)
CR/CMR ([2]; DLBCL GCB, N 19): 4 (21) n (%)
Not evaluable/ not assessed ([2]; DLBCL GCB, N 19): 1 (5) n (%)
ORR ([2]; DLBCL GCB, N 19): 6 (32 [13-57]) n (% [95% CI])
PD/PMD ([2]; DLBCL GCB, N 19): 9 (47) n (%)
PR/PMR ([2]; DLBCL GCB, N 19): 2 (11) n (%)
deep responses (>75% decrease from baseline in target lesion size), patients ([2]; DLBCL, 20 evaluable): 10%
CR/CMR ([2]; DLBCL, N 23): 4 (17) n (%)
Not evaluable/ not assessed ([2]; DLBCL, N 23): 1 (4) n (%)
ORR ([2]; DLBCL, N 23): 7 (30 [13-53]) n (% [95% CI])
PD/PMD ([2]; DLBCL, N 23): 11 (48) n (%)
PR/PMR ([2]; DLBCL, N 23): 3 (13) n (%)
durable response ([2]; DLBCL): ~19 months
ORR ([2]; FL): 71%
median duration of response ([2]; FL): not reached
deep responses (>75% decrease from baseline in target lesion size), patients ([2]; FL, 14 evaluable): 50%
CR/CMR ([2]; FL, N 14): 3 (21) n (%)
Not evaluable/ not assessed ([2]; FL, N 14): 1 (7) n (%)
ORR ([2]; FL, N 14): 10 (71 [42-92]) n (% [95% CI])
PD/PMD ([2]; FL, N 14): 2 (14) n (%)
PR/PMR ([2]; FL, N 14): 7 (50) n (%)
durable response ([2]; FL): ~17 months
CR/CMR ([2]; HL, N 10): 0 (0) n (%)
Not evaluable/ not assessed ([2]; HL, N 10): 1 (10) n (%)
ORR ([2]; HL, N 10): 2 (20 [3-56]) n (% [95% CI])
PD/PMD ([2]; HL, N 10): 4 (40) n (%)
PR/PMR ([2]; HL, N 10): 2 (20) n (%)
ORR ([2]; MCL): 67%
median duration of response ([2]; MCL): not reached
deep responses (>75% decrease from baseline in target lesion size), patients ([2]; MCL, 8 evaluable): 38%
CR/CMR ([2]; MCL, N 9): 4 (44) n (%)
Not evaluable/ not assessed ([2]; MCL, N 9): 1 (11) n (%)
ORR ([2]; MCL, N 9): 6 (67 [30-93]) n (% [95% CI])
PD/PMD ([2]; MCL, N 9): 0 (0) n (%)
PR/PMR ([2]; MCL, N 9): 2 (22) n (%)
durable response ([2]; MCL): ≥ 14 months
ORR ([2]; MZL): 78%
median duration of response ([2]; MZL): 4.4 months
deep responses (>75% decrease from baseline in target lesion size), patients ([2]; MZL, 7 evaluable): 57%
responses occurring by the first assessment (~9 weeks) ([2]; MZL, FL, MCL, DLBCL): 93%
CR/CMR ([2]; MZL, N 9): 3 (33) n (%)
Not evaluable/ not assessed ([2]; MZL, N 9): 0 n (%)
ORR ([2]; MZL, N 9): 7 (78 [40-97]) n (% [95% CI])
PD/PMD ([2]; MZL, N 9): 1 (11) n (%)
PR/PMR ([2]; MZL, N 9): 4 (44) n (%)
durable response ([2]; MZL): ~10 months
durable responses among patients receiving QW dosing ([2]; QW dosing): > 6 months
CR/CMR ([2]; WM, N 1): 0 (0) n (%)
Not evaluable/ not assessed ([2]; WM, N 1): 0 n (%)
ORR ([2]; WM, N 1): 1 (100 [3-100]) n (% [95% CI])
PD/PMD ([2]; WM, N 1): 0 (0) n (%)
PR/PMR ([2]; WM, N 1): 1 (100) n (%)
patients who achieved an objective response ([2]; all patients with NHL administered 20 mg QD at time of regimen change): 11 patients
objective responses at the first disease assessment ([2]; of 11 patients with NHL administered 20 mg QD): 10
objective responses in patients previously treated with ibrutinib ([2]; of the 4 patients with MCL): 2 patients
deep responses, patients ([2]; relapsed or refractory B-cell NHL, 10 mg QD to 45 mg QD): > 30%
inhibition of pAKT in whole blood [3]: near-maximal inhibition
